Experimental data taken from PMC11222147, “Host defence peptide plectasin targets bacterial cell wall precursor lipid II by a calcium-sensitive supramolecular mechanism” (Nature Microbiology, 2024).
Values after ≈ are worked out from the molar mass of the structure shown. Like-named read-outs stand apart in the source and are kept apart here. Where a SMILES comes first, the peptide text is derived from it. Bridges are numbered along the chain shown (N, C = ends). Where no end group is shown, it is not given here.

Assays:
[1] = test system: S. simulans 22; assay: MIC assays under standard conditions; assay type: cell-based, Staphylococcus simulans; conditions: for Minimum inhibitory concentration, S. simulans / MIC: cation-adjusted MHB, 37 °C; for MIC: Staphylococcus simulans, 22
Description: (§1) Plectasin and analogues were serially diluted in cation-adjusted Mueller–Hinton broth (MHB) in round-bottom polypropylene 96-well plates (50 µl per well). Selected bacterial strains were grown from glycerol stocks on blood agar plates. Individual colonies were inoculated in TSB and incubated at 37 °C while shaking until OD600 reached 0.5. Bacterial suspensions were then diluted 100 times in cation-adjusted MHB and distributed (50 μl per well) over the microplate containing the diluted plectasin solutions. Plates were covered by a gas-permeable adhesive membrane and incubated at 37 °C while shaking. MICs were determined by visual inspection after 16–20 h (Staphylococcus) or 20–24 h (Streptococcus). For Streptococcus strains, the broth was additionally supplemented with 5% lysed horse blood, and the microplates were incubated under 5% CO2 atmosphere. In the assays, we used the following strains: S. simulans, S. pneumoniae serotype 8, S. pneumoniae ATCC6305 and Streptococcus pyogenes M3.

[2] = test system: S. pneumoniae ATCC6305; assay: MIC assays under standard conditions; assay type: cell-based, Streptococcus pneumoniae; conditions: Supplementary Table 1, cation-adjusted MHB + 5% lysed horse blood, 5% CO2, 20–24 h
Description: as §1

Compound	Minimum inhibitory concentration, S. simulans ([1]; Supplementary Table 1, 16–20 h)	Minimum inhibitory concentration, S. pneumoniae ATCC6305 [2]	also measured
CSCC[C@@H]1NC(=O)[C@H](CC(=O)O)NC(=O)[C@H](CC(=O)O)NC(=O)[C@H](CCC(=O)O)NC(=O)[C@H](CC(=O)O)NC(=O)[C@H](Cc2c[nH]c3ccccc23)NC(=O)[C@@H]2CCCN2C(=O)CNC(=O)[C@H](CC(N)=O)NC(=O)[C@@H](NC(=O)CNC(=O)[C@H](Cc2ccccc2)NC(=O)CN)CSSC[C@@H]2NC(=O)[C@H](Cc3ccc(O)cc3)NC(=O)CNC(=O)CNC(=O)[C@H](CCCCN)NC(=O)[C@H](Cc3ccc(O)cc3)NC(=O)CNC(=O)[C@H](CCCCN)NC(=O)[C@H](CCCCN)NC(=O)[C@H](CO)NC(=O)[C@H](CCCCN)NC(=O)[C@@H]3CSSC[C@@H](C(=O)N[C@@H](Cc4ccc(O)cc4)C(=O)O)NC(=O)[C@H](CCCCN)NC(=O)[C@H](CSSC[C@H](NC(=O)[C@H](CCC(N)=O)NC1=O)C(=O)N[C@@H](Cc1c[nH]cn1)C(=O)N[C@@H](CC(N)=O)C(=O)N[C@@H](Cc1c[nH]cn1)C(=O)N3)NC(=O)[C@H](C(C)C)NC(=O)[C@H](Cc1ccccc1)NC(=O)CNC(=O)CNC(=O)[C@H](CCCCN)NC(=O)[C@H](C)NC2=O [I22K] (H-GFGCNGPWDEDDMQCHNHCKSKKGYKGGYCAKGGFVCKCY-OH; disulfide 4-30, 15-37, 19-39 (inferred); N-terminus and C-terminus assumed)	> 50 µg/mL	> 50 µg/mL	
CC[C@H](C)[C@@H]1NC(=O)[C@H](CO)NC(=O)[C@H](CCCCN)NC(=O)[C@@H]2CSSC[C@@H](C(=O)N[C@@H](Cc3ccc(O)cc3)C(=O)O)NC(=O)[C@H](CCCCN)NC(=O)[C@@H]3CSSC[C@H](NC(=O)[C@H](CCC(N)=O)NC(=O)[C@H](CCSC)NC(=O)[C@H](CC(=O)O)NC(=O)[C@H](CC(=O)O)NC(=O)[C@H](CCC(=O)O)NC(=O)[C@H](CC(=O)O)NC(=O)[C@H](Cc4c[nH]c5ccccc45)NC(=O)[C@@H]4CCCN4C(=O)CNC(=O)[C@H](CC(N)=O)NC(=O)[C@@H](NC(=O)CNC(=O)[C@H](Cc4ccccc4)NC(=O)CN)CSSC[C@H](NC(=O)[C@H](Cc4ccc(O)cc4)NC(=O)CNC(=O)CNC(=O)[C@H](C)NC(=O)[C@H](Cc4ccc(O)cc4)NC(=O)CNC(=O)[C@H](CCCCN)NC1=O)C(=O)N[C@@H](C)C(=O)N[C@@H](CCCCN)C(=O)NCC(=O)NCC(=O)N[C@@H](Cc1ccccc1)C(=O)N[C@@H](C(C)C)C(=O)N3)C(=O)N[C@@H](Cc1c[nH]cn1)C(=O)N[C@@H](CC(N)=O)C(=O)N[C@@H](Cc1c[nH]cn1)C(=O)N2 [K26A] (H-GFGCNGPWDEDDMQCHNHCKSIKGYAGGYCAKGGFVCKCY-OH; disulfide 4-30, 15-37, 19-39 (inferred); N-terminus and C-terminus assumed)	3,13 μg/mL	3,13 μg/mL	reduction in activity vs plectasin ([1]; from MIC of Table 1): fivefold to tenfold
CC[C@H](C)[C@@H]1NC(=O)[C@H](CO)NC(=O)[C@H](CCCCN)NC(=O)[C@@H]2CSSC[C@@H](C(=O)N[C@@H](Cc3ccc(O)cc3)C(=O)O)NC(=O)[C@H](CCCCN)NC(=O)[C@@H]3CSSC[C@H](NC(=O)[C@H](CCC(N)=O)NC(=O)[C@H](CCSC)NC(=O)[C@H](CC(=O)O)NC(=O)[C@H](CC(=O)O)NC(=O)[C@H](CCC(=O)O)NC(=O)[C@H](CC(=O)O)NC(=O)[C@H](Cc4c[nH]c5ccccc45)NC(=O)[C@@H]4CCCN4C(=O)CNC(=O)[C@H](CC(N)=O)NC(=O)[C@@H](NC(=O)CNC(=O)[C@H](Cc4ccccc4)NC(=O)CN)CSSC[C@H](NC(=O)[C@H](Cc4ccc(O)cc4)NC(=O)CNC(=O)CNC(=O)[C@H](CCCNC(=N)N)NC(=O)[C@H](Cc4ccc(O)cc4)NC(=O)CNC(=O)[C@H](CCCCN)NC1=O)C(=O)N[C@@H](C)C(=O)N[C@@H](CCCCN)C(=O)NCC(=O)NCC(=O)N[C@@H](Cc1ccccc1)C(=O)N[C@@H](C(C)C)C(=O)N3)C(=O)N[C@@H](Cc1c[nH]cn1)C(=O)N[C@@H](CC(N)=O)C(=O)N[C@@H](Cc1c[nH]cn1)C(=O)N2 [K26R] (H-GFGCNGPWDEDDMQCHNHCKSIKGYRGGYCAKGGFVCKCY-OH; disulfide 4-30, 15-37, 19-39 (inferred); N-terminus and C-terminus assumed)	≤ 0.78 µg/mL	1,56 μg/mL	
CN[C@H](CC(C)C)C(=O)N[C@H]1C(=O)N[C@@H](CC(N)=O)C(=O)N[C@H]2C(=O)N[C@H]3C(=O)N[C@H](C(=O)N[C@H](C(=O)O)c4cc(O)cc(O)c4-c4cc3ccc4O)[C@H](O)c3ccc(c(Cl)c3)Oc3cc2cc(c3O[C@@H]2O[C@H](CO)[C@@H](O)[C@H](O)[C@H]2O[C@H]2C[C@](C)(N)[C@H](O)[C@H](C)O2)Oc2ccc(cc2Cl)[C@H]1O [Vancomycin, reference compound]			MIC ([1]; Supplementary Table 1, 16–20 h, read-out: Minimum inhibitory concentration, S. simulans): 0.78 µg/mL (≈ 0.538 µM); MIC ([1]; standard conditions, visual inspection after 16–20 h, read-out: MIC): 0.78 µg/mL (≈ 0.538 µM); MIC ([2]; Streptococcus pneumoniae, ATCC6305, read-out: Minimum inhibitory concentration, S. pneumoniae ATCC6305): < 0.78 µg/mL
CC[C@H](C)[C@@H]1NC(=O)[C@H](CO)NC(=O)[C@H](CCCCN)NC(=O)[C@@H]2CSSC[C@@H](C(=O)N[C@@H](Cc3ccc(O)cc3)C(=O)O)NC(=O)[C@H](CCCCN)NC(=O)[C@@H]3CSSC[C@H](NC(=O)[C@H](CCC(N)=O)NC(=O)[C@H](CCSC)NC(=O)[C@H](CC(=O)O)NC(=O)[C@H](CC(=O)O)NC(=O)[C@H](CCC(=O)O)NC(=O)[C@H](CC(=O)O)NC(=O)[C@H](Cc4c[nH]c5ccccc45)NC(=O)[C@@H]4CCCN4C(=O)CNC(=O)[C@H](CC(N)=O)NC(=O)[C@@H](NC(=O)CNC(=O)[C@H](Cc4ccccc4)NC(=O)CN)CSSC[C@H](NC(=O)[C@H](Cc4ccc(O)cc4)NC(=O)CNC(=O)CNC(=O)[C@H](CCCCN)NC(=O)[C@H](Cc4ccccc4)NC(=O)CNC(=O)[C@H](CCCCN)NC1=O)C(=O)N[C@@H](C)C(=O)N[C@@H](CCCCN)C(=O)NCC(=O)NCC(=O)N[C@@H](Cc1ccccc1)C(=O)N[C@@H](C(C)C)C(=O)N3)C(=O)N[C@@H](Cc1c[nH]cn1)C(=O)N[C@@H](CC(N)=O)C(=O)N[C@@H](Cc1c[nH]cn1)C(=O)N2 [Y25F] (H-GFGCNGPWDEDDMQCHNHCKSIKGFKGGYCAKGGFVCKCY-OH; disulfide 4-30, 15-37, 19-39 (inferred); N-terminus and C-terminus assumed)	1,56 μg/mL	3,125 μg/mL	
CC[C@H](C)[C@@H]1NC(=O)[C@H](CO)NC(=O)[C@H](CCCCN)NC(=O)[C@@H]2CSSC[C@@H](C(=O)N[C@@H](Cc3ccc(O)cc3)C(=O)O)NC(=O)[C@H](CCCCN)NC(=O)[C@@H]3CSSC[C@H](NC(=O)[C@H](CCC(N)=O)NC(=O)[C@H](CCSC)NC(=O)[C@H](CC(=O)O)NC(=O)[C@H](CC(=O)O)NC(=O)[C@H](CCC(=O)O)NC(=O)[C@H](CC(=O)O)NC(=O)[C@H](Cc4c[nH]c5ccccc45)NC(=O)[C@@H]4CCCN4C(=O)CNC(=O)[C@H](CC(N)=O)NC(=O)[C@@H](NC(=O)CNC(=O)[C@H](Cc4ccccc4)NC(=O)CN)CSSC[C@H](NC(=O)[C@H](Cc4ccc(O)cc4)NC(=O)CNC(=O)CNC(=O)[C@H](CCCCN)NC(=O)[C@H](CC(C)C)NC(=O)CNC(=O)[C@H](CCCCN)NC1=O)C(=O)N[C@@H](C)C(=O)N[C@@H](CCCCN)C(=O)NCC(=O)NCC(=O)N[C@@H](Cc1ccccc1)C(=O)N[C@@H](C(C)C)C(=O)N3)C(=O)N[C@@H](Cc1c[nH]cn1)C(=O)N[C@@H](CC(N)=O)C(=O)N[C@@H](Cc1c[nH]cn1)C(=O)N2 [Y25L] (H-GFGCNGPWDEDDMQCHNHCKSIKGLKGGYCAKGGFVCKCY-OH; disulfide 4-30, 15-37, 19-39 (inferred); N-terminus and C-terminus assumed)	3,13 μg/mL		
CC[C@H](C)[C@@H]1NC(=O)[C@H](CO)NC(=O)[C@H](CCCCN)NC(=O)[C@@H]2CSSC[C@@H](C(=O)N[C@@H](Cc3ccc(O)cc3)C(=O)O)NC(=O)[C@H](CCCCN)NC(=O)[C@@H]3CSSC[C@H](NC(=O)[C@H](CCC(N)=O)NC(=O)[C@H](CCSC)NC(=O)[C@H](CC(=O)O)NC(=O)[C@H](CC(=O)O)NC(=O)[C@H](CCC(=O)O)NC(=O)[C@H](CC(=O)O)NC(=O)[C@H](Cc4c[nH]c5ccccc45)NC(=O)[C@@H]4CCCN4C(=O)CNC(=O)[C@H](CC(N)=O)NC(=O)[C@@H](NC(=O)CNC(=O)[C@H](Cc4ccccc4)NC(=O)CN)CSSC[C@H](NC(=O)[C@H](Cc4ccc(O)cc4)NC(=O)CNC(=O)CNC(=O)[C@H](CCCCN)NC(=O)[C@H](C(C)C)NC(=O)CNC(=O)[C@H](CCCCN)NC1=O)C(=O)N[C@@H](C)C(=O)N[C@@H](CCCCN)C(=O)NCC(=O)NCC(=O)N[C@@H](Cc1ccccc1)C(=O)N[C@@H](C(C)C)C(=O)N3)C(=O)N[C@@H](Cc1c[nH]cn1)C(=O)N[C@@H](CC(N)=O)C(=O)N[C@@H](Cc1c[nH]cn1)C(=O)N2 [Y25V] (H-GFGCNGPWDEDDMQCHNHCKSIKGVKGGYCAKGGFVCKCY-OH; disulfide 4-30, 15-37, 19-39 (inferred); N-terminus and C-terminus assumed)	6,25 μg/mL		
nisin (ITSISLCTPGCKTGALMGCNMKTATCHCSIHVSK; not fully specified (some residues, bridges); also: lantibiotic nisin-A (thioether rings, dehydro residues) not placed; UniProt P13068 24-57, looked up) [reference compound]			MIC towards S. simulans as quoted in Extended Data Fig. 8 ([1]; legend of the permeabilization assays): 0.075 µM
